Patent US20250144132A1, “POLYSACCHARIDE COMPOUND WITH A DEFINED MOLECULAR STRUCTURE THAT CAN ELIMINATE THE TOXIC SIDE EFFECTS OF CHEMOTHERAPY DRUGS” (priority 2023, published 2025)
Where two headings read alike, the source gives them in different places.

Columns and labels:
[1] = system: 4T1 breast tumor-bearing mice; assay type: in vivo, BALB/c mice
Experimental: A suspension of 4T1 breast cancer cells was injected subcutaneously into the left shoulder back of 60 healthy female BALB/c mice to create solid tumor models. When the mean tumor volume reached approximately 190 mm^3, the mice were randomized into groups based on tumor volume, and were administered the respective drugs or drug solvents via oral gavage or intraperitoneal injection over 18 consecutive days. Longest and shortest diameters of tumors were measured every three days to calculate tumor volume, and mouse weights were recorded every three days. At the end of the experiment, tumors, spleens, and thymuses were harvested and weighed to calculate tumor, spleen, and thymus indices.
Based on previous experimental results, Ganoderma lucidum polysaccharide GLP-1 was administered at a low dose of 50 mg/kg and a high dose of 150 mg/kg as shown in Table 27.
(§1) Where TRTV is the relative tumor volume in the experimental group, and CRTV is the relative tumor volume in the model control group. Relative tumor volume (RTV)=Vt/V0, where Vt is the tumor volume on day t of dosing, and V0 is the tumor volume at the time of grouping.
(§2) Where T represents the average tumor weight in the treatment group, and C represents the average tumor weight in the model control group.
(§3) Spleen and thymus organ coefficients: After the last dose, spleen, thymus, and tumor weights are measured, and organ coefficients are calculated.
(§4) Tumor index (%)=(tumor weight/body weight)×100%.
(§5) Immune organ index (mg/g)=(organ mass/body weight)×1000.
(§6) Statistical analyses were performed using SPSS 17.0, with the significance level set at P≤0.05. Measurement data were expressed as mean±standard deviation (˜±s). Normality and homogeneity of variance were tested using Leven's test. If data met normality and homogeneity of variance (P>0.05), one-way ANOVA and LSD test were used for statistical analysis. […] If the Kruskal-Wallis test was statistically significant (P<0.05), comparison analysis was performed using Dunnett's Test (a non-parametric method). Evaluation considered statistical differences and biological significance.

H22-bearing mice = assay type: in vivo
Experimental: A homogenate suspension of H22 hepatoma solid tumors was injected subcutaneously under the axilla of 65 healthy male C57 mice to create a solid tumor model. Once all mouse tumors averaged a volume of about 230 mm3, mice were randomized into groups based on tumor volume and were administered the respective drugs or drug solvents via oral gavage or intraperitoneal injection for 25 consecutive days. Longest and shortest diameters of tumors were measured every three days to calculate tumor volume, and mouse weights were recorded every three days. At the end of the experiment, tumors, spleens, and thymuses were harvested and weighed to calculate tumor, spleen, and thymus indices.
Based on previous experimental results, Ganoderma lucidum polysaccharide GLP-1 was administered at a low dose of 50 mg/kg and a high dose of 150 mg/kg as shown in Table 20.
as §1, §2, §3, §4, §5
as §6, with “(x±s).” for “(˜±s).”

LLC cells = assay: Cytotoxic effects of Ganoderma lucidum polysaccharide GLP-1 combined with cisplatin on LLC cells (MTT, absorbance at 570 nm); assay type: cell-based; details: 48 h, GLP-1 2 mg/mL
Experimental: LLC lung cancer cells were seeded in a 96-well cell culture plate at 3,000 cells per well and incubated at 37° C. in a 5% CO2 incubator for 24 h. […] The cultures were then incubated for another 48 h before measuring the absorbance at 570 nm.

LLC-bearing mice = details: cisplatin 4 mg/kg, Kanglaite 1404 mg/kg
[2] = cisplatin 3 mg/kg, GLP-1 low-dose 50 mg/kg
[3] = blood, flow cytometry, GLP-1 low-dose 130 mg/kg

N.N.[Cl][Pt][Cl] [Cisplatin, cisplatin]
Number of deaths ([1]; 4T1 breast tumor-bearing mice, 8 animals, cisplatin 4 mg/kg i.p.): 1
Survival time ([1]; 4T1 breast tumor-bearing mice, 18-day dosing, cisplatin 4 mg/kg i.p.): 17.1 ± 2.3 days
Tumor volume ([1]; 4T1 breast tumor-bearing mice, D0, cisplatin 4 mg/kg i.p.): 190.5 ± 34.8 mm^3
Tumor growth inhibition rate vs. the model control group ([1]; 4T1 breast tumor-bearing mice, end of experiment, cisplatin 4 mg/kg i.p.): 71.6%
Tumor growth inhibition rate compared to the model control group ([1]; by tumor weight, cisplatin 4 mg/kg, GLP-1 low-dose 50 mg/kg): 71.6%
Survival time (H22-bearing mice; 25 days of dosing, cisplatin 3 mg/kg, GLP-1 low-dose 50 mg/kg): 25 ± 0 days
Tumor growth inhibition rate vs. the model control group (H22-bearing mice; H22-bearing mice, end of experiment, cisplatin alone): 84.2%
Tumor growth inhibition rate compared to the model control group (H22-bearing mice; by tumor weight, cisplatin 3 mg/kg, GLP-1 low-dose 50 mg/kg): 84.2%
Mortality rate (H22-bearing mice; [2]): 0%
Number of deaths (H22-bearing mice; [2]): 0
Inhibition rate (LLC cells): 35.2%
Tumor volume (LLC-bearing mice; D1, GLP-1 low-dose 130 mg/kg): 94.99 mm^3
Tumor volume (LLC-bearing mice; D4, GLP-1 low-dose 130 mg/kg): 150.58 mm^3
Tumor volume (LLC-bearing mice; D7, GLP-1 low-dose 130 mg/kg): 8.91 mm^3
Tumor volume (LLC-bearing mice; D10, GLP-1 low-dose 130 mg/kg): 6.51 mm^3
Tumor volume (LLC-bearing mice; D13, GLP-1 low-dose 130 mg/kg): 27.36 mm^3
Tumor volume (LLC-bearing mice; D16, GLP-1 low-dose 130 mg/kg): 36.09 mm^3
Tumor volume (LLC-bearing mice; D19, GLP-1 low-dose 130 mg/kg): 71.00 mm^3
Tumor volume (LLC-bearing mice; D22, GLP-1 low-dose 130 mg/kg): 824.01 mm^3
Tumor volume (LLC-bearing mice; D25, GLP-1 low-dose 130 mg/kg): 976.79 mm^3
Tumor histopathology (LLC-bearing mice; H&E, x200): large areas of necrosis and hemorrhage were visible at the tumor center, with abundant tumor cells
Tumor coefficient (LLC-bearing mice; after last dose, GLP-1 low-dose 130 mg/kg): 7.528 ± 2.567 %
CD3^+/CD4^+ (LLC-bearing mice; [3]): 0.093 ± 0.025
CD3^+/CD8^+ (LLC-bearing mice; [3]): 1.571 ± 0.406
Tumor growth inhibition rate (LLC-bearing mice; by tumor weight vs model control, GLP-1 low-dose 130 mg/kg): 61.6%
Blood WBC level compared to the model control group (LLC-bearing mice; GLP-1 low-dose 130 mg/kg): significantly decreased
Body weight compared to the model control group (LLC-bearing mice; GLP-1 low-dose 130 mg/kg): significantly decreased after administration from D7 to D25
Mortality rate (LLC-bearing mice; GLP-1 low-dose 130 mg/kg): 0%
Number of deaths (LLC-bearing mice; GLP-1 low-dose 130 mg/kg): 0
Number of surviving animals (LLC-bearing mice; GLP-1 low-dose 130 mg/kg): 8
